Results published in US20250332249A1, “CYTOM[…] CELL EPITOPES AND USES THEREOF” (LA JOLLA INSTITUTE FOR IMMUNOLOGY, priority 2021, published 2025).
Where no end group is shown, it is not given here.

Tested on: PBMCs from HCMV seropositive subjects
Assay: ex vivo IFN-γ Fluorospot assay
Format: cell-based, human
Details: 19 HCMV seropositive subjects, individual peptide 10 ug/ml, 20 hr; for No. of subjects responding: IFN-γ; for Magnitude of response: IFN-γ spots (FIG. 1: SFC/10^6 PBMC; no unit in table)
Protocol: To define the targets of HCMV-specific T cell epitopes recognized in healthy adults, the inventors screened PBMCs of 19 subjects, 10 males and 9 females, recruited from San Diego blood bank (SDBB). The HCMV seropositivity of all the subjects was confirmed by IgG ELISA (FIG. 6A). A total of 2593 HCMV peptides covering a total of 563 ORFs (1) were tested. However, as many of these predicted ORFs overlapped 100% with others, as they were internal to longer ORFs, these 563 contained 359 completely unique ORFs composed of ˜150“canonical” ORFs, and an additional ˜200 identified by ribosomal RNA profiling (1). These peptides corresponded to predicted dominant epitopes, based on a bioinformatic method that predicts promiscuous binding to HLA class II molecules (40). Each of the ORFs above was covered by multiple predicted epitopes (with a minimum of at least 2), with the exception of very small ORFs (less than 15-20 amino acid residues), in which case at least one peptide was synthetized. The 2593 peptides were arranged in 89 pools of 28-30 15-mer peptides. PBMC reactivity of each of the 89 pools was assayed directly ex vivo using an IFN-γ Fluorospot assay.
For the initial CMV ORF screen, the responses of 19 CMV-seropositive subjects were evaluated. PBMCs were stimulated with 89 pools covering 563 ORFs of HCMV. Each pool comprised of 28-30 15-mer peptides overlapping by 10 residues. PBMCs that were found reactive to a pool were further tested against individual peptides contained in the pool using IFN-γ Fluorospot assay.
PBMC were thawed, washed and counted for viability using the trypan blue exclusion method. 200,000 cells were plated in triplicates and stimulated with pools (2 ug/ml) or peptides (10 ug/ml), PHA (10 ug/ml) or medium containing equivalent amount of DMSO in 96-well plates (Immubilion-P, Millipore) previously coated with anti IFN-γ antibody (1-DIK, Mabtech, Stockholm, Sweden). After 20 hr incubation at 37° C., cells were discarded and wells were washed six times with PBS/0.05% Tween 20 using an automated plate washer and further incubated with IFN-γ antibody (7-B6-1-FS-BAM) for 2 hrs at room temperature. After incubation, wells were washed and incubated with fluorophore conjugated anti-BAM-490 antibody for 1 hr at room temperature. Finally, the plates were washed and incubated with fluorescence enhancer for 15 min, blotted dry and fluorescent spots were counted by computer assisted image analysis (IRIS Fluorospot reader, Mabtech, Sweden).
Each pool or peptide was considered positive compared to the background that had equivalent amount of DMSO based on the following criteria: (i) 20 or more spot forming cells (SFC) per 10^6 PBMC after background subtraction, (ii) the stimulation index greater than 2, and (iii) p<0.05 by student's t test or Poisson distribution test

Substance | No. of subjects responding | Magnitude of response
70 (YQKVLTFRRSYAYIH) [compound 70] | 1 | 40
71 (RRSYAYIHTTYLLGS) [compound 71] | 5 | 2730
72 (QLMPDDYSNTHSTRY) [compound 72] | 5 | 45517
73 (NLNCMVTITTARSKY) [compound 73] | 2 | 4810
74 (NADKFFIFPNYTIVS) [compound 74] | 4 | 5120
75 (GLVVFWQGIKQKSLV) [compound 75] | 1 | 53
76 (QLQFTYDTLRGYINR) [compound 76] | 3 | 2236
77 (LRGYINRALAQIAEA) [compound 77] | 3 | 30337
78 (KELSKINPSAILSAI) [compound 78] | 3 | 18557
79 (AILSAIYNKPIAARF) [compound 79] | 5 | 11264
80 (ASCVTINQTSVKVLR) [compound 80] | 5 | 8941
81 (YLFKRMIDLSSISTV) [compound 81] | 1 | 67
84 (QILWTDGLARRTRDR) [compound 84] | 1 | 37
85 (RVGITIQQLNVYHQL) [compound 85] | 1 | 963
86 (TMRSVFEMQRIRHGA) [compound 86] | 1 | 67
87 (NIFLVGFYLLVPYLG) [compound 87] | 1 | 1633
88 (SLLILVVLLLIYRCC) [compound 88] | 1 | 23
89 (LSYMKYHHLHGLPVN) [compound 89] | 3 | 879
90 (VELCLGAGAGHVVVV) [compound 90] | 1 | 383
91 (RSSWRASCVEVPKKP) [compound 91] | 1 | 370
92 (MQKYFSLDNFLHDYV) [compound 92] | 2 | 20343
93 (QTIYFLGLTALLLRY) [compound 93] | 1 | 583

Substance | No. of subjects responding | Magnitude of response
94 (SFYLVNAMSRNLFRV) [compound 94] | 1 | 43
95 (TMRKLKRKQALVKEQ) [compound 95] | 1 | 1563
96 (TAVSEFMKNTHVLIR) [compound 96] | 1 | 747
98 (IKMWFLLGAPMIAVL) [compound 98] | 3 | 2867
99 (LFIIAFFSREPTKDL) [compound 99] | 1 | 190
100 (PKSFTLTRIHPEYIV) [compound 100] | 2 | 340
101 (PEYIVQIQNAFETNQ) [compound 101] | 4 | 527
102 (GALTLVIPSWHVFAS) [compound 102] | 2 | 190
103 (CRSATSLVGNTNADV) [compound 103] | 1 | 30
104 (SSCAHTTCRSATSLV) [compound 104] | 2 | 104
105 (SWLGQMLRPVGLCTL) [compound 105] | 1 | 43
114 (GILARNLVPMVATVQ) [compound 114] | 11 | 34633
116 (RVTGLVFSVVFSVSL) [compound 116] | 4 | 6380
117 (LTWCVIADRQPRFSV) [compound 117] | 3 | 240
118 (RPKRRVVAPFRVAAA; ends and bridges not checked) [compound 118] | 2 | 283
119 (APFRVAAAGETPLGR; ends and bridges not checked) [compound 119] | 6 | 1089
131 (PFTVLRLSYAYRIFA; ends and bridges not checked) [compound 131] | 1 | 33
132 (AREFLLSHDAALFRA; ends and bridges not checked) [compound 132] | 1 | 23
133 (MLIQQYVLSQYYIKK; ends and bridges not checked) [compound 133] | 1 | 20
134 (RLGTAATQIQKQTLY; ends and bridges not checked) [compound 134] | 1 | 30
135 (KTQIFNKLFTNRISV; ends and bridges not checked) [compound 135] | 1 | 1587
136 (VRSLAVDAQHAAKRV; ends and bridges not checked) [compound 136] | 1 | 53

Substance | No. of subjects responding | Magnitude of response
137 (LEERDEWVRSLAVDA) [compound 137] | 1 | 47
138 (AAITVVPVITQSRLA) [compound 138] | 3 | 450
139 (PWYPITQARTLELTP) [compound 139] | 2 | 996
140 (MSTKRSTVPWYPITQ) [compound 140] | 3 | 477
141 (LRVTFHRVKPTLQRE) [compound 141] | 2 | 830
142 (SGRVILWTTLRLCIL) [compound 142] | 1 | 20
143 (VVRKYWTFTNPNRIL) [compound 143] | 3 | 16876
144 (TFDVRQFVFDNARLV) [compound 144] | 6 | 13736
145 (VRGGIVENKSVSSVV) [compound 145] | 5 | 2691
146 (GNLQVTYVRHYLKNH) [compound 146] | 4 | 655
147 (AVAFLNYSSSSSAVS) [compound 147] | 3 | 2151
148 (AGLMMMRRMRRAPAE) [compound 148] | 1 | 490
149 (CDLPLVSSRLLPETS) [compound 149] | 1 | 123
150 (CEIKPYVVNPVVATA) [compound 150] | 3 | 2583
151 (DPLLRLSQVAGSGRR) [compound 151] | 2 | 2067
152 (LPLCSTARLRLAPRR) [compound 152] | 1 | 467
153 (RATGNFRSTSLYAAV) [compound 153] | 3 | 4220
154 (RCCTLRFRRRCRARC) [compound 154] | 2 | 713
155 (MSATRHHRCCTLRFR) [compound 155] | 1 | 277
156 (RVFCLSADWIRFLSL) [compound 156] | 2 | 846
